The source of these data is patent US6500414B2, “Aromatic dimethicone copolyol polymers as sunscreen agents in personal care applications” (Siltech LLC, priority 2000, dated 2002).

The data set can be described thus: UV maxima for the absorption. The following applies: spectral region of the absorption. Format: physicochemical. An excerpt:
The following comparison is a common silicone backbone, with differing, “b”, and “c” values. The effect upon solubility at 5% in water and the UV maxima for the absorption are quite dramatic.

SMILES strings stand for the structures.

As to `C=CCc1ccc(O)c(OC)c1` [eugenol, 2-methoxy-4-(2 propenyl)phenol], the UV absorption region result is reported as “UV-C region”.
